In patent publication US12110279B2, “Triazolones, tetrazolones, and imidazolones, or their salts, and pharmaceutical compositions comprising the same” (Yuhan Corporation, priority 2021, dated 2024) one finds IC50 data, which are given here for 11 molecules.

What is called pIC50 is the negative decadic logarithm of the IC50, by convention in mol/L. The term IC50 denotes the midpoint of a concentration-inhibition curve.

Holding throughout (format): biochemical
The target in assay [1] is T1, recombinant human DAO (diamine oxidase) (Homo sapiens, UniProt P19801).
T1 construct: purchased R&D systems
T1 sequence (P19801 20-751): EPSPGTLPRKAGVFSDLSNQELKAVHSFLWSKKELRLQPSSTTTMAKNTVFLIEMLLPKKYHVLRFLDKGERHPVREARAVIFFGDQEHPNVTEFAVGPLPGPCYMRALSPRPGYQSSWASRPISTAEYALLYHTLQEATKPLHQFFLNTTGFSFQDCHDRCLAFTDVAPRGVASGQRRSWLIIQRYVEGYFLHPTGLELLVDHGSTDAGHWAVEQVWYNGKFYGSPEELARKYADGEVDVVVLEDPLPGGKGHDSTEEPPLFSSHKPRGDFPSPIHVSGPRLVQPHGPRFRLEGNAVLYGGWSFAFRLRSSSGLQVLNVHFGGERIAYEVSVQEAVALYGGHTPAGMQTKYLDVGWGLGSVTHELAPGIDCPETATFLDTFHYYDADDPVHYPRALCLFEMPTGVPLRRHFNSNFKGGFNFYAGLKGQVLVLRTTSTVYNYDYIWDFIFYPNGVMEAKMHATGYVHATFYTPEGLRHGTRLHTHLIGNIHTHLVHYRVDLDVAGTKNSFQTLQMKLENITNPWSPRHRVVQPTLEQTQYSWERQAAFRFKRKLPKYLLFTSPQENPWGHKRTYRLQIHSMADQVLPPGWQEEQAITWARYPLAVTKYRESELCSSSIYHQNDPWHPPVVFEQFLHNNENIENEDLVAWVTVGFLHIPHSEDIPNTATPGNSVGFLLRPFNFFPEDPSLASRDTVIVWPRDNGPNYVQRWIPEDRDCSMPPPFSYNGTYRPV
Description: Amplex Red HRP-coupled amine oxidase activity evaluation, recombinant human DAO. To be noted: for IC50: substrate 1 mM putrescine, read-out: Inhibitory Activity (IC50, nM) DAO. Here is the method:
[The source words this procedure for another target and says it was used here with some conditions changed.] (§1) The compounds according to the present technology were evaluated in terms of activity on recombinant human VAP-1 (R&D systems) by measuring the level of hydrogen peroxide in horseradish peroxidase (HRP)-coupled reaction using Amplex Red Hydrogen Peroxide Assay Kit (Molecular Probes, Invitrogen, USA). The experiment was carried out at room temperature using benzylamine as a substrate. In the HRP-coupled reaction, hydrogen peroxide oxidation of 10-acetyl-3,7-dihydroxyphenoxazine (Amplex Red reagent) produces resorufin, which is a highly fluorescent compound. Briefly, the test compound was dissolved in dimethyl sulfoxide (DMSO) at a concentration of 20 mM. The dose-response assessment was made by 1:3 serial dilution in DMSO, thereby creating an 8-point curve. The concentration of the upper part was controlled according to the efficacy of the compounds, followed by dilution with a reaction buffer solution to obtain a final DMSO concentration of less than 1%. To each well of a 96 black well plate, human VAP-1 purified in 50 mM sodium phosphate buffer solution (pH7.4) was added. The test compounds dissolved in DMSO were incubated with the human VAP-1 enzymes at 37° C. for 30 minutes. After 30-minute incubation, each well was added with a reaction mixture containing 200 uM Amplex Red reagent prepared from 50 mM sodium phosphate buffer solution (pH 7.4), 1 mM benzylamine, and 1 U/mL HRP. Fluorescence intensity was measured at several time points during 1-2 hours using a microplate reader (Flexstation3, Molecular Devices) under the wavelength condition exciting at 544 nm and reading the emission at 590 nm. The inhibitory effect of the compounds was measured as a decrease (%) in the signal rate as compared to the control group without any inhibitor (only diluted DMSO). Data was fixed to a logistic model with four variables and IC50 value was calculated using GraphPad Prism program.

Assay [2] addresses T2, recombinant human MAO-A (monoamine oxidase-A) (Homo sapiens, UniProt P21397).
T2 construct: purchased Sigma-Aldrich
T2 sequence (P21397 1-527): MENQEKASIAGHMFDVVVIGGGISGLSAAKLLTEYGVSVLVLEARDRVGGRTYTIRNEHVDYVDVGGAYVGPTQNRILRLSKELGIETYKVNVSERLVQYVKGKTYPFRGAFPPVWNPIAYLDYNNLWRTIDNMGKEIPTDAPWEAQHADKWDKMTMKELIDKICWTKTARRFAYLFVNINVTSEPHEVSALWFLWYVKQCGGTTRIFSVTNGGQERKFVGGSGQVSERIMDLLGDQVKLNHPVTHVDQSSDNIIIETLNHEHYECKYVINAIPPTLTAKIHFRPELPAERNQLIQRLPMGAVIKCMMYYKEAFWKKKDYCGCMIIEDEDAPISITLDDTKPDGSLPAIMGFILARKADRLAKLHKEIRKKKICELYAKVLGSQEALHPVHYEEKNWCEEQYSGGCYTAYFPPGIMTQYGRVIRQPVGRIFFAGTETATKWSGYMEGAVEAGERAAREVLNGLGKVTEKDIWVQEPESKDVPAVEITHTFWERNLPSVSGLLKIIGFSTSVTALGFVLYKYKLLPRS
Description: Amplex Red HRP-coupled amine oxidase activity evaluation, recombinant human MAO-A. As to conditions: substrate 0.5 mM tyramine; read-out: Inhibitory Activity (IC50, nM) MAO-A. As for the experimental part:
[The source words this procedure for another target and says it was used here with some conditions changed.] as §1

The target in another assay is T3, recombinant human VAP-1 (Homo sapiens, UniProt Q16853).
T3 construct: purchased R&D systems
T3 sequence (Q16853 1-763): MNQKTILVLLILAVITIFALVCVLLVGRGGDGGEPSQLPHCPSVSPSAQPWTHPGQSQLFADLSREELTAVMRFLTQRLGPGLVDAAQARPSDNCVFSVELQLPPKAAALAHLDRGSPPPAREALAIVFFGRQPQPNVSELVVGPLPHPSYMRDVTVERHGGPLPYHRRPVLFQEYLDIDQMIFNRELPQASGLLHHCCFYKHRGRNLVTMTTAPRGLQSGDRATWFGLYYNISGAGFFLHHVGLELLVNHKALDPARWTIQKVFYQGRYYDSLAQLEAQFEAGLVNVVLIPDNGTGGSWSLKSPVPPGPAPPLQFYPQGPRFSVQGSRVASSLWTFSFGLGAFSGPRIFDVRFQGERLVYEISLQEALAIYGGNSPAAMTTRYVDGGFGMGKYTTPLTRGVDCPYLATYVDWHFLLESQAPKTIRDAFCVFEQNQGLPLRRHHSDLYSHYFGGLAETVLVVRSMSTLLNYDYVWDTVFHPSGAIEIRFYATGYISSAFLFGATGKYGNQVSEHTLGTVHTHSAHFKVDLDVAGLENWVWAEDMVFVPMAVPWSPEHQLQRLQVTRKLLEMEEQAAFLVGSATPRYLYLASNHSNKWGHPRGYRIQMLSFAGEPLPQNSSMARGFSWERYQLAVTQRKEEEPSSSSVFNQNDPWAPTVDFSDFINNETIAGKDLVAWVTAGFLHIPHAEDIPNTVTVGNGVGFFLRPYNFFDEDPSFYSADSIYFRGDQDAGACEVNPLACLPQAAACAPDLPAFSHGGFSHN
Description: Amplex Red HRP-coupled amine oxidase activity evaluation, recombinant human VAP-1. As to conditions: substrate 1 mM benzylamine; 30 min preincubation at 37° C.; read-out: Inhibitory Activity (IC50, nM) human VAP-1. Here is the method:
as §1

Assay [3] has as its target T4, recombinant human MAO-B (monoamine oxidase-B) (Homo sapiens, UniProt P27338).
T4 construct: purchased Sigma-Aldrich
T4 sequence (P27338 1-520): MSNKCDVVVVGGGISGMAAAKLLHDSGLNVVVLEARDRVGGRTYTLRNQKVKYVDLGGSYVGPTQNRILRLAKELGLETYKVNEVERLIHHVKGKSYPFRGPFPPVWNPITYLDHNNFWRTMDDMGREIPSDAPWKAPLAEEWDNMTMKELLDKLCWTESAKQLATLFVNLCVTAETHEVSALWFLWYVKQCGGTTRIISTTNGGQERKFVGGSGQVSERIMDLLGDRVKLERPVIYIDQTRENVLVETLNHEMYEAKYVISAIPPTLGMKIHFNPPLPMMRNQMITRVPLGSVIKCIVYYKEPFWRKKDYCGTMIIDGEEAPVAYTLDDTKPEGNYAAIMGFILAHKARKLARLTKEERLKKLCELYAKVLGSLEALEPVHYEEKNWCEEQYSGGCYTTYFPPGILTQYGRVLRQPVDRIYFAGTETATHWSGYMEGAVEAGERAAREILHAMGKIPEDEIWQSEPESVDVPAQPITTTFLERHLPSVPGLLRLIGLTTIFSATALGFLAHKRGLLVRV
Description: Amplex Red HRP-coupled amine oxidase activity evaluation, recombinant human MAO-B. As to conditions: substrate 1 mM benzylamine; read-out: Inhibitory Activity (IC50, nM) MAO-B. As for the experimental part:
[The source words this procedure for another target and says it was used here with some conditions changed.] as §1

pIC50: −log10 of the molar value. Structures can show the parent of a compound that is named as a salt. Where two headings read alike, the source gives them in different places.

For the molecule `CS(=O)(=O)c1ccc(-c2cccc(-n3nnn(CC(CN)=C(F)F)c3=O)c2)cc1` [Example 10, 1-[2-(aminomethyl)-3,3-difluoro-allyl]-4-[3-(4-methylsulfonylphenyl)phenyl]tetrazol-5-one trifluoroacetate], in assay [1], the negative logarithm of the IC50 (pIC50) is 8.66. Besides, the IC50 was > 100000 nM in assay [2], 0.4 nM on recombinant human VAP-1 and 53200 nM in assay [3].

Consider `NCC(Cn1nnn(-c2cccc(-c3ccc(N4CCNCC4)cc3)c2)c1=O)=C(F)F` [Example 11, 1-[2-(aminomethyl)-3,3-difluoro-allyl]-4-[3-(4-piperazin-1-ylphenyl)phenyl]tetrazol-5-one trifluoroacetate], for which the pIC50 in assay [1] was 6.45. Further, the IC50 in assay [2] was > 100000 nM; on recombinant human VAP-1, 7 nM; in assay [3], > 100000 nM.

On to `CCn1cc(-c2cccc(-n3nnn(CC(CN)=C(F)F)c3=O)c2)ccc1=O` [Example 12, 5-[3-[4-[2-(aminomethyl)-3,3-difluoro-allyl]-5-oxo-tetrazol-1-yl]phenyl]-1-ethyl-pyridin-2-one di-trifluoroacetate], for which the pIC50 in assay [1] is 8.00. For the same molecule, the half-inhibitory concentration (IC50) is > 100000 nM in assay [2], 0.9 nM at recombinant human VAP-1 and > 100000 nM in assay [3].

For `Cc1cc(-c2cccc(-n3nnn(CC(CN)=C(F)F)c3=O)c2)cc2c1NC(=O)CC2` [Example 13, 6-[3-[4-[2-(aminomethyl)-3,3-difluoro-allyl]-5-oxo-tetrazol-1-yl]phenyl]-8-methyl-3,4-dihydro-1H-quinolin-2-one trifluoroacetate], the IC50 in assay [1] is 12 nM; in assay [2] it was > 100000 nM; at recombinant human VAP-1, 0.7 nM; in assay [3] it was 7800 nM.

In the case of `CN1C(=O)CCc2cc(-c3cccc(-n4nnn(CC(CN)=C(F)F)c4=O)c3)ccc21` [Example 14, 6-[3-[4-[2-(aminomethyl)-3,3-difluoro-allyl]-5-oxo-tetrazol-1-yl]phenyl]-1-methyl-3,4-dihydroquinolin-2-one trifluoroacetate], the negative-log IC50 (pIC50) in assay [1] was 7.92. Also, the values for the IC50 (in assay [2]; at recombinant human VAP-1; in assay [3]) were > 100000 nM, 1.4 nM and 2470 nM, respectively.

Take `CCn1cc(-c2cccc(-n3nnn(CC(CN)=C(F)F)c3=O)c2)cn1` [Example 15, 1-[2-(aminomethyl)-3,3-difluoro-allyl]-4-[3-(1-ethylpyrazol-4-yl)phenyl]tetrazol-5-one trifluoroacetate]: the negative-log IC50 (pIC50) in assay [1] was 6.95. The IC50 was > 100000 nM in assay [2], 1 nM at recombinant human VAP-1 and 43500 nM in assay [3].

Regarding `CS(=O)(=O)c1ccc(-c2ccc(-n3nnn(CC(CN)=C(F)F)c3=O)cc2)cc1` [Example 16, 1-[2-(aminomethyl)-3,3-difluoro-allyl]-4-[4-(4-methylsulfonylphenyl)phenyl]tetrazol-5-one trifluoroacetate], the 50% inhibitory concentration (IC50) was 55 nM in assay [1], > 100000 nM in assay [2], 1.5 nM on recombinant human VAP-1 and 260 nM in assay [3].

In the case of `NCC(Cn1nnn(-c2ccc(-c3ccc(N4CCNCC4)cc3)cc2)c1=O)=C(F)F` [Example 17, 1-[2-(aminomethyl)-3,3-difluoro-allyl]-4-[4-(4-piperazin-1-ylphenyl)phenyl]tetrazol-5-one di-trifluoroacetate], the IC50 is 65 nM in assay [1], > 100000 nM in assay [2], 1.2 nM at recombinant human VAP-1 and 3990 nM in assay [3].

`CCn1cc(-c2ccc(-n3nnn(CC(CN)=C(F)F)c3=O)cc2)ccc1=O` [Example 18, 5-[4-[4-[2-(aminomethyl)-3,3-difluoro-allyl]-5-oxo-tetrazol-1-yl]phenyl]-1-ethyl-pyridin-2-one trifluoroacetate]: the IC50 in assay [1] was > 100000 nM; in assay [2], > 100000 nM; at recombinant human VAP-1, 0.2 nM; in assay [3], 78 nM.

For the molecule `NCC(Cn1nnn(-c2ccc(-c3ccc4c(c3)OCO4)cc2)c1=O)=C(F)F` [Example 19, 1-[2-(aminomethyl)-3,3-difluoro-allyl]-4-[4-(1,3-benzodioxol-5-yl)phenyl]tetrazol-5-one trifluoroacetate], the IC50 in assay [1] is 4890 nM; in assay [2], > 100000 nM; at recombinant human VAP-1 it was 0.5 nM; in assay [3] it was 8.8 nM.

As for `Cc1cc(-c2ccc(-n3nnn(CC(CN)=C(F)F)c3=O)cc2)cc2c1NC(=O)CC2` [Example 20, 6-[4-[4-[2-(aminomethyl)-3,3-difluoro-allyl]-5-oxo-tetrazol-1-yl]phenyl]-8-methyl-3,4-dihydro-1H-quinolin-2-one trifluoroacetate], the IC50 in assay [1] was > 100000 nM; in assay [2], 82600 nM; on recombinant human VAP-1 it was 0.4 nM; in assay [3], 49 nM.
